The source of these data is the NIST ThermoML archive (doi:10.1021/acs.jced.8b00292).

Numbers after ± are expanded uncertainties.

For data set [1] the following is noted: Crystal; DSC.
The nature of data set [2]: Molar enthalpy of transition or fusion. As to conditions: Crystal; DSC.

With `Nc1nc(Cl)cc(Cl)n1` [2-amino-4,6-dichloropyrimidine], in data set [1], the Triple point temperature is 496.42 ± 1.2 K. Further, the “Molar enthalpy of transition or fusion” value in data set [2] stood at 4.66 ± 0.215 kcal/mol.
